Reference: patent US20200405604A1, “COSMETIC COMPOSITION COMPRISING 4-(3-ETHOXY-4-HYDROXYPHENYL)-2-BUTANONE” (L'OREAL, priority 2011, published 2020)

Test: Solubility test in test solvents
Type: physicochemical
Experimental: The test solvent was poured into a beaker, an amount of the compound 4-(3-ethoxy-4-hydroxyphenyl)-2-butanone was added with magnetic stirring and the mixture was left to stand for between 1 hour and 24 hours. The mixture was then heated to 50° C. and then cooled to room temperature (25° C.) over 24 hours. The system was then observed to see if the amount of compound introduced recrystallized or remained dissolved.
The amount of compound that can be dissolved in the test solvent was determined in this manner. The maximum value corresponds to the amount at and above which the ester compound stops dissolving in the evaluated solvent.

Solubility (in words) (in water or glycerol): very sparingly soluble | Dissolution (in words) (with ethanol, 1,2-propylene glycol, 1,3-propanediol, PEG-8 and propylene carbonate): very satisfactorily dissolved | Dissolution (in words) (with glycerol): very sparingly dissolved
Compound: CCOc1cc(CCC(C)=O)ccc1O [4-(3-ethoxy-4-hydroxyphenyl)-2-butanone]
